{
  "source": "paper PMC6844310",
  "about": "“Deletion of glutaredoxin promotes oxidative tolerance and intracellular infection in Listeria monocytogenes” (Virulence, 2019)",
  "target": "T1, Grx (Lmo2344) (Listeria monocytogenes, UniProt Q8Y4T8)",
  "T1 construct": "CHYC active motif",
  "T1 sequence (Q8Y4T8 1-88)": "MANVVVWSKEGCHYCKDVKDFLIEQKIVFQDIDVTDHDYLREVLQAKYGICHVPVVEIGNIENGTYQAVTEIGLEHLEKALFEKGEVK",
  "experiment": "insulin disulfide reduction, turbidity at […] nm",
  "format": "biochemical",
  "settings": "electron donor, 1 mM DTT; 0.15 mM human insulin, pH 7.0, 2 mM EDTA; DTT also reduces insulin non-enzymatically",
  "data": [
    {"smiles": "OC(CS)C(O)CS", "note": "(stereo not shown) [DTT]", "values": [
      {"measurement": "insulin disulfide reduction, turbidity at 650 nm", "result": "Using DTT as an electron donor, the recombinant Lmo2344 is able to catalyze the reduction"}
    ]}
  ]
}
